System: tyrosine kinase activity in xenograft tumor lysates
Test: PAMCHIP96 (140-peptide array) profiling of xenograft tumor lysates in absence or presence of MTKI
Format: biochemical
Conditions: 5 μM
Description: 100 mg of frozen tumor or tissue blocks, or sections, are lysed in 1 ml of M-PER buffer (PIERCE) containing phosphatase and protease inhibitors (HALT, PIERCE). The suspension is mixed using a ULTRA-TURRAX blender (IKA werke), and centrifuged twice for 10 minutes at 12 000×g. Supernatant lysates are filtered through a 0.2 micrometer filter (Anotop 0.2 μm anopore filter; Whatmann). Lysates are flash frozen in liquid nitrogen and stored at −80C.
Just prior to the PAMCHIP experiment, total protein content is quantitated in the lysates and lysates are diluted to 1 mg/ml in a total volume of 200 μl, with M-PER phosphatase and protease inhibitors (HALT, PIERCE). 10 μg of total lysate (corresponding to 10 μl) will be used per well on the PAMCHIP96.
To all 200 μl lysates 10 units of benzonase (Novagen) is added and lysates are further incubated for 30 min on ice and next centrifuged for 10 minutes at 12 000×g. The supernatant is then 1:1 diluted with compound or DMSO diluted to the appropriate concentration in water, and lysates are further incubated exactly 60 min on ice. Meanwhile, a PAMCHIP96 tyrosine peptide chip (PAMGENE) is blocked with 2% BSA (filtered through a 0.2 μm anopore filter; Whatmann) using the standard setting of a PAMSTATION96 (PAMGENE).
The composition of the kinase buffer is as follows: 1×ABL buffer (NEB), 0.5 mg/ml BSA (from 10 mg/ml NEB stock), 100 μM ATP (dissolved and diluted in 1×ABL buffer), 5 μg/ml PY20-FITC (ExAlpha Biologicals, azide-free preparation). A twofold concentrated kinase buffer is prepared chilled on ice, DMSO or compound is added as appropriate, and the solution is added 1:1 to the (compound treated) ice cold lysates, and immediately applied to a tyrosine peptide PAMCHIP96. The assay is run on a PAMSTATION96 according to standard procedures: after loading of the plate, solution is pumped once onto the wells, a first exposure is read (150 mSec) and then a kinetic reading program (reading every 5 min for 150 mSec) is run for 60 min. Lysates are run in 6 technical replicates for each condition; replicates are always applied horizontally next to each other to avoid vertical strip effects of the chip.
The data (spot images) are further quantified and linked to the peptide identities using EVOLVE PAMGRID software (PAMGENE). The quantified data are then fit to a curve using CurveFitHT software (PAMGENE) using the Vinip2 curve fitting algorithm, applied on the first 30 min of the assay; the initial velocity is derived at the first kinetic time point read. All subsequent data analyses were done on initial velocities (Vini) using the software packages Omniviz and R (Ihaka, R. and Gentlemen, R. (1996) R: a language for data analysis and graphics. J. Comput. Graph. Stat., 5, 299-314).
After replacing the Vini's lower than 0.1 by 0.1, all Vini's were log 2-transformed to approach normality. […] This test was done for each peptide separately using a mixed model (Littell, R. C., Milliken, G. A., Stroup, W. W., Wolfinger, R. D. 1996. SAS system for mixed models. Cary, N. C.: SAS Institute Inc.) allowing the incorporation of both technical variation (i.e., the variation across replicates) and biological variation (i.e., the variation among the various responding and non-responding cell lines or tumors). Variation between cell lines or tumors in Vini and in treatment effect on Vini was modeled respectively by random intercepts and random compound effects per cell line or tumor, nested in response status. The difference in compound-induced reduction in Vini between responding and non-responding cell lines or tumors was tested through the interaction between compound treatment and response status, both modeled as fixed effects.

COc1cc2ncnc3c2cc1OCCCCCN(C)Cc1ccc(Br)cc1N3 [MTKI, 4,6-ethanediylidenepyrimido[4,5-b][6,1,12]benzoxadiazacyclopentadecine, 17-bromo-8,9,10,11,12,13,14,19-octahydro-20-methoxy-13-methyl-]
ratio of initial velocity of peptide phosphorylation (A431 xenograft tumor lysate, CDK7_157_169_S164): 0.60
ratio of initial velocity of peptide phosphorylation (A431 xenograft tumor lysate, EPHB1_921_933_Y928): 0.39
ratio of initial velocity of peptide phosphorylation (A431 xenograft tumor lysate, FAK1_569_581_Y576/Y577): 0.58
ratio of initial velocity of peptide phosphorylation (A431 xenograft tumor lysate, GSK3B_209_221_Y216): 0.67
ratio of initial velocity of peptide phosphorylation (A431 xenograft tumor lysate, K2C6E_53_65_S59): 0.54
ratio of initial velocity of peptide phosphorylation (A431 xenograft tumor lysate, MBP_259_271_Y261/Y268/S266): 0.60
ratio of initial velocity of peptide phosphorylation (A431 xenograft tumor lysate, MK10_216_228_T221/Y223): 0.60
ratio of initial velocity of peptide phosphorylation (A431 xenograft tumor lysate, NCF1_313_325_S315/S320): 0.66
ratio of initial velocity of peptide phosphorylation (A431 xenograft tumor lysate, NTRK2_699_711_Y702/Y706/Y707): 0.46
ratio of initial velocity of peptide phosphorylation (A431 xenograft tumor lysate, P2AB_297_309_T304/Y307): 0.65
ratio of initial velocity of peptide phosphorylation (A431 xenograft tumor lysate, PGFRB_572_584_Y579/Y581): 0.64
ratio of initial velocity of peptide phosphorylation (A431 xenograft tumor lysate, RAF1_331_343_S337/S338/Y339/Y340): 0.58
ratio of initial velocity of peptide phosphorylation (A431 xenograft tumor lysate, RB_804_816_S807/S811): 0.53
ratio of initial velocity of peptide phosphorylation (A431 xenograft tumor lysate, SYN1_2_14_S9): 0.76
ratio of initial velocity of peptide phosphorylation (A431 xenograft tumor lysate, TYRO3_679_691_Y686): 0.55
ratio of initial velocity of peptide phosphorylation (A431 xenograft tumor lysate, VEGFR2_944_956_Y951): 0.58
ratio of initial velocity of peptide phosphorylation (A431 xenograft tumor lysate, VINC_815_827_Y821): 0.52
ratio of initial velocity of peptide phosphorylation (BT474 xenograft tumor lysate, EPHB1_921_933_Y928): 0.70
ratio of initial velocity of peptide phosphorylation (BT474 xenograft tumor lysate, FAK1_569_581_Y576/Y577): 0.89
ratio of initial velocity of peptide phosphorylation (BT474 xenograft tumor lysate, GSK3B_209_221_Y216): 0.89
ratio of initial velocity of peptide phosphorylation (BT474 xenograft tumor lysate, K2C6E_53_65_S59): 0.80
ratio of initial velocity of peptide phosphorylation (BT474 xenograft tumor lysate, MBP_259_271_Y261/Y268/S266): 0.85
ratio of initial velocity of peptide phosphorylation (BT474 xenograft tumor lysate, MK10_216_228_T221/Y223): 0.83
ratio of initial velocity of peptide phosphorylation (BT474 xenograft tumor lysate, NCF1_313_325_S315/S320): 1.02
ratio of initial velocity of peptide phosphorylation (BT474 xenograft tumor lysate, NTRK2_699_711_Y702/Y706/Y707): 0.77
ratio of initial velocity of peptide phosphorylation (BT474 xenograft tumor lysate, P2AB_297_309_T304/Y307): 0.62
ratio of initial velocity of peptide phosphorylation (BT474 xenograft tumor lysate, PGFRB_572_584_Y579/Y581): 0.75
ratio of initial velocity of peptide phosphorylation (BT474 xenograft tumor lysate, RAF1_331_343_S337/S338/Y339/Y340): 0.94
ratio of initial velocity of peptide phosphorylation (BT474 xenograft tumor lysate, RB_804_816_S807/S811): 0.80
ratio of initial velocity of peptide phosphorylation (BT474 xenograft tumor lysate, SYN1_2_14_S9): 0.96
ratio of initial velocity of peptide phosphorylation (BT474 xenograft tumor lysate, TYRO3_679_691_Y686): 0.84
ratio of initial velocity of peptide phosphorylation (BT474 xenograft tumor lysate, VEGFR2_944_956_Y951): 0.84
ratio of initial velocity of peptide phosphorylation (BT474 xenograft tumor lysate, VINC_815_827_Y821): 0.85
ratio of initial velocity of peptide phosphorylation (DU145 xenograft tumor lysate, CDK7_157_169_S164): 0.96
ratio of initial velocity of peptide phosphorylation (DU145 xenograft tumor lysate, EPHB1_921_933_Y928): 0.81
ratio of initial velocity of peptide phosphorylation (DU145 xenograft tumor lysate, FAK1_569_581_Y576/Y577): 0.72
ratio of initial velocity of peptide phosphorylation (DU145 xenograft tumor lysate, GSK3B_209_221_Y216): 1.07
ratio of initial velocity of peptide phosphorylation (DU145 xenograft tumor lysate, K2C6E_53_65_S59): 0.77
ratio of initial velocity of peptide phosphorylation (DU145 xenograft tumor lysate, MBP_259_271_Y261/Y268/S266): 0.81
ratio of initial velocity of peptide phosphorylation (DU145 xenograft tumor lysate, MK10_216_228_T221/Y223): 0.77
ratio of initial velocity of peptide phosphorylation (DU145 xenograft tumor lysate, NCF1_313_325_S315/S320): 0.97
ratio of initial velocity of peptide phosphorylation (DU145 xenograft tumor lysate, NTRK2_699_711_Y702/Y706/Y707): 0.77
ratio of initial velocity of peptide phosphorylation (DU145 xenograft tumor lysate, P2AB_297_309_T304/Y307): 0.81
ratio of initial velocity of peptide phosphorylation (DU145 xenograft tumor lysate, PGFRB_572_584_Y579/Y581): 0.72
ratio of initial velocity of peptide phosphorylation (DU145 xenograft tumor lysate, RAF1_331_343_S337/S338/Y339/Y340): 0.83
ratio of initial velocity of peptide phosphorylation (DU145 xenograft tumor lysate, RB_804_816_S807/S811): 0.76
ratio of initial velocity of peptide phosphorylation (DU145 xenograft tumor lysate, SYN1_2_14_S9): 0.88
ratio of initial velocity of peptide phosphorylation (DU145 xenograft tumor lysate, TYRO3_679_691_Y686): 0.83
ratio of initial velocity of peptide phosphorylation (DU145 xenograft tumor lysate, VEGFR2_944_956_Y951): 0.95
ratio of initial velocity of peptide phosphorylation (DU145 xenograft tumor lysate, VINC_815_827_Y821): 0.84

From patent publication US20100234238A1, “METHOD FOR PROFILING KINASE INHIBITORS” (Janssen Pharmaceutica N V, priority 2006, published 2010)
